Values joined by “and” are separate entries in the source; they are usually repeats but may differ in a detail not shown here. Equal entries are not always repeated. “Also recorded” adds a separate entry of the source.
Tests used:
Type in all cases: in vivo, Macaca mulatta (Rhesus Macaque)
[1] = system: rhesus monkeys with spontaneous chronic kidney disease (CKD); test: Effect on UACR (proteinuria), 8-week oral administration; conditions: for MALB: Valsartan group 2.67 mg/kg/time oral (qd wk 1-2, bid wk 3-8); for MALB / UACR change rate / UACR: per animal + Mean ± SD; for UACR change rate: 8 weeks vs baseline, negative = decrease
Method: CKD-EPI rating […]-G3b, glomerular filtration rate eGFR: 30 59 ml/min/1.73 m^2; or moderate to severe increase in proteinuria (A2-A3): urine albumin/creatinine ratio (UACR)>15 mg/g-350 mg/g (4-6 hour urine collection), vs. age-matched control group 3±2 mg/g. In the trial, animals were brought in three stages. […] ELISA kit was used for NT-proBNP test. [table]

[2] = system: rhesus monkeys with spontaneous chronic kidney disease; test: Effect on blood pressure (SBP, DBP, MBP, HR) after anesthesia, 8-week administration; conditions: for DBP / SBP: Valsartan group (n = 3)
From the text: In the trial, animals were brought in three stages.
Route of administration: Oral administration.
After anesthesia, the animal was placed in a supine position. The left upper arm was shaved clean, and a suitable size cuff was tied according to the standard. The blood oxygen probe was clamped on the animal's finger or toe (except for the left hand), and the red light-sensitive surface was on the side of the finger pad. The blood pressure of the animal was continuously measured for 3 times in the automatic mode with an interval of 1 min. If the difference of DBP, SBP and MBP of blood pressure measured more than three times was not significant (the difference between the highest value and the lowest value was less than 15 mmHg), the measurement was completed.
Testing equipment: GE B40i electrophysiological monitor.
See Table 16 for the effects of administration of each administration group on blood pressure. The blood pressure test of primates required anesthesia, so it was necessary to control the variability of heart rate at various time points to make statistics.

[3] = system: rhesus monkeys with spontaneous chronic kidney disease; test: Effect on NT-proBNP (ELISA), 8-week administration; conditions: Valsartan group (n = 3)
From the text: In the trial, animals were brought in three stages. […] ELISA kit was used for NT-proBNP test. [table]

[4] = Baseline, single animals and Mean ± SD
[5] = Baseline, single animals and Mean ± SD, mean
[6] = Valsartan group (n=3), after W8 administration, p<0.01 vs placebo

In the case of CCCCC(=O)N(Cc1ccc(-c2ccccc2-c2nnn[nH]2)cc1)[C@H](C(=O)O)C(C)C [Valsartan, reference compound], the MALB ([1]; 8 weeks) is reported as 6.2 mg/L and 39.9 mg/L and 19.5 mg/L, the MALB ([1]; 8 weeks, mean) is reported as 21.9 ± 17.0 mg/L and the MALB ([1]; Baseline) is reported as 7.1 mg/L and 60.0 mg/L and 25.8 mg/L. For the same compound, the MALB ([1]; Baseline, mean) was 31.0 ± 26.8 mg/L, the UACR change rate ([1]; Valsartan group 2.67 mg/kg/time oral) was -41.10% and -69.59% and 35.88% and the UACR change rate ([1]; Valsartan group 2.67 mg/kg/time oral, mean) was −24.93 ± 54.56%. For the same compound, the “UACR Benefit assessment” value ([1]; Valsartan group 2.67 mg/kg/time oral, 8 weeks, per animal) was “both showed benefit; also recorded: the benefit was not obvious”, the UACR ([1]; Valsartan group 2.67 mg/kg/time oral, 8 weeks) was 22.0 mg/g and 19.3 mg/g and 20.4 mg/g and the UACR ([1]; Valsartan group 2.67 mg/kg/time oral, 8 weeks, mean) was 20.6 ± 1.3 mg/g. The UACR ([1]; Valsartan group 2.67 mg/kg/time oral, Baseline) was 15 mg/g and 37.3 mg/g and 63.6 mg/g and 15.0 mg/g and 38.7 ± 24.3 mg/g, the “UACR of W8 decreased by, compared with the baseline” value ([1]; Valsartan group, 2 animals (No. 2091, No. 4861)) was 40%-70% and the “W8 UACR after administration” value ([1]; Valsartan group, one animal with baseline UACR 15 mg/g) was 20.4%. The DBP ([2]; 4 weeks) was 62 mmHg and 53 mmHg, the SBP ([2]; 4 weeks) was 130 mmHg and 106 mmHg and 138 mmHg and the DBP ([2]; 4 weeks, mean) was 59 ± 5 mmHg. For the same compound, the SBP ([2]; 4 weeks, mean) was 125 ± 17 mmHg, the DBP ([2]; 8 weeks) was 61 mmHg and 53 mmHg and 75 mmHg and the SBP ([2]; 8 weeks) was 121 mmHg and 107 mmHg and 133 mmHg. For the same compound, the DBP ([2]; 8 weeks, mean) was 63 ± 11 mmHg, the SBP ([2]; 8 weeks, mean) was 120 ± 13 mmHg and the DBP ([2]; Baseline) was 67 mmHg and 60 mmHg and 82 mmHg. For the same compound, the DBP ([2]; Baseline, mean) was 70 ± 11 mmHg, the SBP [2, 4] was 131 mmHg and 125 mmHg and 148 mmHg and the SBP [2, 5] was 135 ± 12 mmHg. The “DBP decreased by on average, compared with the baseline” value [2, 6] was 7±0 mmHg, the “SBP decreased by on average, compared with the baseline” value [2, 6] was 14±4 mmHg and the NT-proBNP ([3]; 4 weeks) was 179 pg/mL and 260 pg/mL and 285 pg/mL. For the same compound, the NT-proBNP ([3]; 4 weeks, mean) was 241 ± 56 pg/mL, the NT-proBNP ([3]; 8 weeks) was 217 pg/mL and 288 pg/mL and 291 pg/mL and the NT-proBNP ([3]; 8 weeks, mean) was 266 ± 42 pg/mL. For the same compound, the NT-proBNP [3, 4] was 211 pg/mL and 500 pg/mL and 394 pg/mL and the NT-proBNP [3, 5] was 368 ± 146 pg/mL.
